For one data set, the target named is T1, yeast α-glucosidase (Saccharomyces cerevisiae, UniProt P53341).
T1 construct: purchased Sigma-Aldrich
In words: biochemical. The note with it: for IC50: yeast α-glucosidase, mean ± SD of three independent experiments; for α-glucosidase inhibitory activity in words: SAR discussion of Table 1. It is filed as biochemical. The method, then: The in vitro enzymatic inhibitory activity of phthalimide-phenoxy-1,2,3-triazole-N-phenyl (or benzyl) acetamide 11a–n was evaluated against yeast α-glucosidase.
The change in absorbance was measured at 405 nm using by a standard spectrophotometer (Gen5, Power wave xs2, BioTek, America).

The target of the next data set is T2, α-glucosidase (Saccharomyces cerevisiae, UniProt P53341).
T2 construct: purchased Sigma-Aldrich
T2 sequence (P53341 whole entry): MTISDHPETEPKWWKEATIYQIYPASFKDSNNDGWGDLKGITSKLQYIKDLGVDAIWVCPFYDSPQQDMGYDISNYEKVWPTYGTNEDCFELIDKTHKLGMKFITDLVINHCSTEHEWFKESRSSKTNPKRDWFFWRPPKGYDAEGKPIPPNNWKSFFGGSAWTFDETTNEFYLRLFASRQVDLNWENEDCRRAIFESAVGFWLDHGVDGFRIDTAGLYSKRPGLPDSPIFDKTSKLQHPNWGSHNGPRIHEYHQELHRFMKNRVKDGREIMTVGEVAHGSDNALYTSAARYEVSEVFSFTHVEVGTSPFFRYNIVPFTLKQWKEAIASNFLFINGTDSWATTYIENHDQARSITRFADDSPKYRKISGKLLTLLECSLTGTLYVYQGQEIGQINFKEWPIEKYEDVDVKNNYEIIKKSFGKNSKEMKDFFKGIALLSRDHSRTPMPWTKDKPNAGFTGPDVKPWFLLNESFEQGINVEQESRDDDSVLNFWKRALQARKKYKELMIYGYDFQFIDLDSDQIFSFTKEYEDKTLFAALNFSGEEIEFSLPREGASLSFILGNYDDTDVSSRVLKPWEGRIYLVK
In words: Kinetic study of α-glucosidase inhibition (Lineweaver–Burk). It counts as biochemical. The method, then: For this purpose, the reaction rates in the presence of different concentrations of compound 11j were measured in various concentrations of substrate (p-nitrophenyl-a-D-glucopyranoside). Graphs of different concentrations of inhibitor were drawn by the Lineweaver–Burk plot (Fig. 2a). […] The Ki value was calculated directly by plotting the slope of each line in the Lineweaver–Burk plots into the different concentrations of compound 11j (Fig. 2b).
The 20 µL of α-glucosidase solution (1 U/mL) was incubated with different concentrations of compound 11j (0, 12, 23 and 46 µM) for 15 min at 30 °C. The reaction was then started by adding different concentrations of substrate (1–10 mM) and change in absorbance was measured for 20 min at 405 nm using by spectrophotometer (Gen5, Power wave xs2, BioTek, America).

T1 sequence (P53341 whole entry): as above

Turning to `O=C(Cn1cc(COc2ccc(N3C(=O)c4ccccc4C3=O)cc2)nn1)Nc1c(Cl)cccc1Cl` [Compound 11i, N-(2,6-dichlorophenyl)-2-(4-((4-(1,3-dioxoisoindolin-2-yl)phenoxy)methyl)-1H-1,2,3-triazol-1-yl)acetamide], the melting point (usually the temperature, or range, at which the solid turns liquid) was in the range of 202 to 204 °C. In addition, the half-inhibitory concentration (IC50) (commonly the concentration that gives 50% inhibition) against yeast α-glucosidase turned out to be 46.2 ± 0.89 µM.

Compound `O=C(Cn1cc(COc2ccc(N3C(=O)c4ccccc4C3=O)cc2)nn1)Nc1ccccc1` [Compound 11a, 2-(4-((4-(1,3-dioxoisoindolin-2-yl)phenoxy)methyl)-1H-1,2,3-triazol-1-yl)-N-phenylacetamide] returned a melting point of 218 to 220 °C. The IC50 against yeast α-glucosidase stood at 203.8 ± 0.32 µM.

Take `Cc1cccc(C)c1NC(=O)Cn1cc(COc2ccc(N3C(=O)c4ccccc4C3=O)cc2)nn1` [Compound 11c, N-(2,6-dimethylphenyl)-2-(4-((4-(1,3-dioxoisoindolin-2-yl)phenoxy)methyl)-1H-1,2,3-triazol-1-yl)acetamide]: the melting point was 209 to 211 °C. Also, the “α-glucosidase inhibitory activity in words” value at yeast α-glucosidase was “inactive”.

Turning to `O=C(Cn1cc(COc2ccc(N3C(=O)c4ccccc4C3=O)cc2)nn1)Nc1ccc(Br)cc1` [Compound 11j, N-(4-bromophenyl)-2-(4-((4-(1,3-dioxoisoindolin-2-yl)phenoxy)methyl)-1H-1,2,3-triazol-1-yl)acetamide], the melting point lay within 237 to 239 °C. For the same compound, on yeast α-glucosidase, the “α-glucosidase inhibitory activity in words” value is given as “moderate anti-α-glucisidase activity” and the 50% inhibitory concentration (IC50) was found to be 45.26 ± 0.03 µM. In addition, the Inhibition mode entry at α-glucosidase (Lineweaver–Burk plot) is “competitive inhibitor”. Further, the Ki – broadly, the equilibrium dissociation constant of an inhibitor or competing ligand from its target – at α-glucosidase (secondary re-plot of Lineweaver–Burk slopes, substrate p-nitrophenyl-a-D-glucopyranoside) is 50.4 µM.

In turn, `O=C(Cn1cc(COc2ccc(N3C(=O)c4ccccc4C3=O)cc2)nn1)NCc1ccc(F)cc1` [Compound 11n, 2-(4-((4-(1,3-dioxoisoindolin-2-yl)phenoxy)methyl)-1H-1,2,3-triazol-1-yl)-N-(4-fluorobenzyl)acetamide] had a melting point of 204 to 206 °C. Besides, the midpoint of inhibition against yeast α-glucosidase, the IC50, lay at 685.99 ± 0.32 µM.

For the compound `O=C(Cn1cc(COc2ccc(N3C(=O)c4ccccc4C3=O)cc2)nn1)Nc1ccc(Cl)cc1Cl` [Compound 11h, N-(2,4-dichlorophenyl)-2-(4-((4-(1,3-dioxoisoindolin-2-yl)phenoxy)methyl)-1H-1,2,3-triazol-1-yl)acetamide], the melting point is 232 to 234 °C. In addition, at yeast α-glucosidase, the IC50 was found to be 284 ± 0.41 µM.

Turning to `Cc1cc([N+](=O)[O-])ccc1NC(=O)Cn1cc(COc2ccc(N3C(=O)c4ccccc4C3=O)cc2)nn1` [Compound 11l, 2-(4-((4-(1,3-dioxoisoindolin-2-yl)phenoxy)methyl)-1H-1,2,3-triazol-1-yl)-N-(2-methyl-4-nitrophenyl)acetamide], the melting point fell in the range of 228 to 230 °C. The same compound registered an IC50 against yeast α-glucosidase of 273.3 ± 0.28 µM.

Regarding `CCc1ccc(NC(=O)Cn2cc(COc3ccc(N4C(=O)c5ccccc5C4=O)cc3)nn2)cc1` [Compound 11d, 2-(4-((4-(1,3-dioxoisoindolin-2-yl)phenoxy)methyl)-1H-1,2,3-triazol-1-yl)-N-(4-ethylphenyl)acetamide], the melting point is 202 to 204 °C. Moreover, at yeast α-glucosidase, the “α-glucosidase inhibitory activity in words” value is listed as “significant decrease in the inhibitory activity” and the IC50 was determined as 491.68 ± 0.11 µM.

Take `O=C(Cn1cc(COc2ccc(N3C(=O)c4ccccc4C3=O)cc2)nn1)Nc1cccc(Cl)c1Cl` [Compound 11g, N-(2,3-dichlorophenyl)-2-(4-((4-(1,3-dioxoisoindolin-2-yl)phenoxy)methyl)-1H-1,2,3-triazol-1-yl)acetamide]: the melting point fell in the range of 203 to 205 °C. Besides, on yeast α-glucosidase, the “α-glucosidase inhibitory activity in words” value was “moderate anti-α-glucisidase activity” and the half-inhibitory concentration (IC50) is 239.1 ± 0.41 µM.

The compound `O=C(Cn1cc(COc2ccc(N3C(=O)c4ccccc4C3=O)cc2)nn1)Nc1ccc([N+](=O)[O-])cc1` [Compound 11k, 2-(4-((4-(1,3-dioxoisoindolin-2-yl)phenoxy)methyl)-1H-1,2,3-triazol-1-yl)-N-(4-nitrophenyl)acetamide] registered a melting point of 260 to 262 °C. Also, at yeast α-glucosidase, the “α-glucosidase inhibitory activity in words” value is reported as “complete loss of inhibitory activity” and the IC50 is greater than 750 µM.

Consider `O=C(Cn1cc(COc2ccc(N3C(=O)c4ccccc4C3=O)cc2)nn1)Nc1cccc(Cl)c1` [Compound 11f, N-(3-chlorophenyl)-2-(4-((4-(1,3-dioxoisoindolin-2-yl)phenoxy)methyl)-1H-1,2,3-triazol-1-yl)acetamide], for which the melting point is 210 to 212 °C. At yeast α-glucosidase, this compound gave a half-inhibitory concentration (IC50) of 112.16 ± 0.03 µM.

In the case of `Cc1cccc(NC(=O)Cn2cc(COc3ccc(N4C(=O)c5ccccc5C4=O)cc3)nn2)c1C` [Compound 11b, N-(2,3-dimethylphenyl)-2-(4-((4-(1,3-dioxoisoindolin-2-yl)phenoxy)methyl)-1H-1,2,3-triazol-1-yl)acetamide], the melting point was 206 to 208 °C. Moreover, at yeast α-glucosidase (ratio of IC50 values), the “Fold less potent than compound 11a” value was 1.8 fold. This compound also had an IC50 against yeast α-glucosidase of 366.1 ± 0.86 µM.

`O=C(Cn1cc(COc2ccc(N3C(=O)c4ccccc4C3=O)cc2)nn1)NCc1ccccc1` [Compound 11m, N-benzyl-2-(4-((4-(1,3-dioxoisoindolin-2-yl)phenoxy)methyl)-1H-1,2,3-triazol-1-yl)acetamide] came in with a melting point of 201 to 203 °C. Also, on yeast α-glucosidase, the “α-glucosidase inhibitory activity in words” value is “inactive” and the concentration for half-maximal inhibition (IC50) was greater than 750 µM.

With `O=C(Cn1cc(COc2ccc(N3C(=O)c4ccccc4C3=O)cc2)nn1)Nc1cccc(F)c1` [Compound 11e, 2-(4-((4-(1,3-dioxoisoindolin-2-yl)phenoxy)methyl)-1H-1,2,3-triazol-1-yl)-N-(3-fluorophenyl)acetamide], the melting point was in the range of 204 to 206 °C. The midpoint of inhibition on yeast α-glucosidase, the IC50, lay at 188.3 ± 0.27 µM.

Values taken from article PMC10282079, “Design, synthesis, in vitro anti-α-glucosidase evaluations, and computational studies of new phthalimide-phenoxy-1,2,3-triazole-N-phenyl (or benzyl) acetamides as potential anti-diabetic agents” (Scientific Reports, 2023).
